This is an account of results in ChEMBL document CHEMBL1150529, “Synthesis and pharmacological activity of SC-53228, a leukotriene B4 receptor antagonist with high intrinsic potency and selectivity” (Bioorg Med Chem Lett, 1994).

Activity calls are given as the source filed them. The rule behind the calls is not given here.

The species entered for one experiment is Homo sapiens. The experiment is described as follows: Compound was tested for inhibitory activity against leukotriene B4 induced neutrophil chemotaxis. The format is functional.
Experiment [1] has as its target Leukotriene B4 receptor 1 (Homo sapiens, UniProt Q15722). Briefly: Inhibitory activity against leukotriene B4 receptor.
For a further experiment, the species on record is Cavia porcellus. The experiment is described as follows: Oral effective dose for guinea pig LTB4 induced intradermal chemotaxis. The format is functional.
In experiment [2] the test system is Mus musculus. Briefly: Topical effective dose for TPA induced ear inflammation in the mouse. Format: functional.
For experiment [3], the species on record is Mus musculus. Briefly: Oral effective dose for TPA induced ear inflammation in the mouse. Format: functional.
A further experiment concerns Rattus norvegicus. The experiment is described as follows: Tested for increase in fatty acyl Co-A activity in rats dosed for 7 days at a dose of 200 mg/kg/day; NS means no significant activity. Format: functional, organism-based.

Leukotriene B4 receptor 1, sequence (Q15722 whole entry): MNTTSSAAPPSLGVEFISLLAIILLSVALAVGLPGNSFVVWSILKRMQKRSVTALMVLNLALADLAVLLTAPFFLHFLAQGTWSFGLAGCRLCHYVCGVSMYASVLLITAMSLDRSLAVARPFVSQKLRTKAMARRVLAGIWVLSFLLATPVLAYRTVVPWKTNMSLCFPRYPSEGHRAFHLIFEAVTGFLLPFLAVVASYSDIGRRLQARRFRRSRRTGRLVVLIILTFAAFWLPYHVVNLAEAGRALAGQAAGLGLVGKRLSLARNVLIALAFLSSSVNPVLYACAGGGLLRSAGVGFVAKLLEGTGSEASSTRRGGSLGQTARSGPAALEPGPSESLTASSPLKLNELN

What is called IC50 is the point on the concentration scale where inhibition reaches its midpoint. A high value points to weaker potency. `CCCCC/C=C\C[C@@H](O)/C=C/C=C/C=C\[C@@H](O)CCCC(=O)O` [LEUKOTRIENE_B4] had a half-inhibitory concentration (IC50) in the experiment filed under Homo sapiens of 1.79 nM.

For `CCCc1c(OCCCOc2ccc(C(=O)NC)c(OC)c2CC2CC2)ccc2c1OC(CCC(=O)O)CC2` (centres undefined), the IC50 in experiment [1] was found to be 10.9 nM; in the experiment filed under Homo sapiens, 21.9 nM.

Regarding `CCCc1c(OCCCOc2ccc(C(N)=O)c(OC)c2CCC)ccc2c1OC(C(=O)O)CC2` (centres undefined), the IC50 in experiment [1] was 2.4 nM; in the experiment filed under Homo sapiens, 2.7 nM.

Consider `CCCc1c(OCCCOc2ccc(C(=O)NC(C)C)c(OC)c2CCC)ccc2c1OC(C(=O)O)CC2` (centres undefined), for which the IC50 stood at 0.1 nM in experiment [1] and 0.11 nM in the experiment filed under Homo sapiens.

Turning to `CCCc1c(OCCCOc2ccc(C(=O)N3CCCC3)c(OC)c2CCC)ccc2c1OC(C(=O)O)CC2` (centres undefined), the IC50 was less than 0.1 nM in experiment [1] and less than 0.16 nM in the experiment listed under Homo sapiens.

For the compound `CCCc1c(OCCCOc2ccc(C(=O)NC)c(OC)c2CC2CC2)ccc2c1O[C@H](CCC(=O)O)CC2`, the ED50 in the experiment filed under Cavia porcellus was 0.07 mg/kg; in the experiment on Mus musculus [2] it was 200 µg; in the experiment filed under Mus musculus [3], less than 2.5 mg/kg. In addition, the IC50 was 14.5 nM in experiment [1] and 24.4 nM in the experiment listed under Homo sapiens. In addition, the result in the experiment on Rattus norvegicus was inactive.

Take `CCCc1c(OCCCOc2ccc(C(=O)NC)c(OC)c2CC2CC2)ccc2c1OC(C(=O)O)CC2` (centres undefined): the IC50 in experiment [1] is 5.3 nM; in the experiment filed under Homo sapiens it was 13 nM.

As to `CCCc1c(OCCCOc2ccc(C(=O)NC)c(OC)c2CCC)ccc2c1OC(C(=O)O)CC2` (centres undefined), the results for the IC50 (in experiment [1]; in the experiment listed under Homo sapiens) were 0.85 nM and 1.3 nM, respectively.

As to `CCCc1c(OCCCOc2ccc(C(=O)NC)c(OC)c2CC2CC2)ccc2c1O[C@@H](CCC(=O)O)CC2`, the ED50 in the experiment filed under Cavia porcellus was determined as 0.2 mg/kg; in the experiment on Mus musculus [2], 1200 µg. Further, the results for the IC50 (in experiment [1]; in the experiment listed under Homo sapiens) were 8.5 nM and 10.7 nM, respectively.

Regarding `CCCc1c(OCCCOc2ccc(C(C)=O)c(OC)c2CCC)ccc2c1OC(C(=O)O)CC2` (centres undefined) [SC-41390], the ED50 in the experiment listed under Cavia porcellus came to 1.7 mg/kg; in the experiment on Mus musculus [2], 1400 µg; in the experiment filed under Mus musculus [3], 18 mg/kg. The compound further returned an IC50 in the experiment listed under Homo sapiens of 1 nM.

`CCCc1c(OCCCOc2ccc(C(=O)N(C)C)c(OC)c2CCC)ccc2c1OC(C(=O)O)CC2` (centres undefined): the IC50 is 0.15 nM in experiment [1] and less than 0.14 nM in the experiment filed under Homo sapiens.
